{"source": "paper PMC6458850", "about": "“CXXC5 mediates growth plate senescence and is a target for enhancement of longitudinal bone growth” (Life Science Alliance, 2019)", "key": {"Various cells": {"tested_on": "Various cells", "assay": "Cytotoxicity test (WST-1 cell viability)", "format": "cell-based", "details": "0.01-100 μM, 24 hours", "experimental": "intravenous; IP, intraperitoneal; Tmax, Time to maximum plasm concentration; Cmax, Maximum plasma concentration after intraperitoneal injection; AUC, Area under the curve; CL, clearance; Vss, Volume of distribution at steady state; T1/2, Elimination half-life; F, […]\nTable R2. Cytotoxicity test for KY19382 […]\nviability was measured using WST-1. The IC50 value was determined from the dose-response […]\nThis manuscript addresses the role of CXXC5, a negative regulator of Wnt/beta-Catenin signaling, on growth plate senescence and associated longitudinal bone growth.\nAuthors used a peptide PTD-DBMP, and a small molecule KY19382, which interferes with GSK-3b activity and CXXC5-DVL interaction. Such interference activates Wnt/beta-catenin signaling that delays growth plate senescence, resulting in longitudinal bone growth in mice; thereby proposing CXXC5 as a potential target to enhance longitudinal growth of children at the risk of height retardation. This is a well\n(1 picture or pasted object on this page, not shown here)"}, "ATDC5 cells": {"tested_on": "ATDC5 cells", "assay": "Chondrocyte proliferation, differentiation and Wnt/β-catenin signaling in ATDC5 cells", "format": "cell-based, mouse", "experimental": "Figure S7. The effects of KY19382 on chondrocyte proliferation and differentiation. (A) ATDC5 cells treated with 0.01 or 0.1 μM concentrations of KY19382 were incubated for 48 h followed by treatment with 50 μM BrdU for 12 h before harvesting. BrdU incorporation was visualized by immunofluorescent staining using a specific BrdU antibody (left). BrdU-positive cells were quantified (mean ± SEM, n = 3; ANOVA, P = 7.8 × 10^−5; Tukey’s post-hoc test, *P < 0.05 and ***P < 0.0005) (right). Scale bar, 100 μm. (B) qRT-PCR analyses of mRNA levels of chondrogenic differentiation markers in ATDC5 cells incubated with 0.1 μM KY19382 for 3 d in three-dimensional alginate beads after transfection with control siRNA or Ctnnb1 siRNA (mean ± SEM, n = 3; t test, *P < 0.05, **P < 0.005, and ***P < 0.0005). (C) qRT-PCR analyses of mRNA levels of chondrogenic differentiation markers in C28/I2 cells incubated with 1 μM KY19382 for 3 d in three-dimensional alginate beads (mean ± SEM, n = 3; t test, *P < 0.05 and ***P < 0.0005). n.s., no significance.\nFigure S8. qRT-PCR analyses for target-specificity of KY19382. qRT-PCR analyses of mRNA levels of pathway-specific target genes in ATDC5 cells treated with 0.01 or 0.1 μM concentrations of KY19382 for 4 h (mean ± SEM, n = 3; ANOVA and Tukey’s post-hoc test, *P < 0.05 and **P < 0.005 versus DMSO-treated control). n.s., no significance versus DMSO-treated control.\nThe mouse chondrogenic cell line, ATDC5, was obtained from the RIKEN Cell Bank. The human juvenile costal chondrocyte cell line, C28/I2, was provided by Dr. W U Kim (Catholic University, Korea). HEK293-TOP cells (HEK293 cells containing the chromosomally incorporated TOPFlash gene) were provided by Dr. S Oh (Kuk Min University, Korea). ATDC5 cells were maintained in DMEM/F12 (1:1) (Gibco) supplemented with 5% FBS (Gibco). To induce hypertrophic differentiation, ATDC5 cells were incubated with insulin–transferrin–sodium selenite supplement (Gibco) in three-dimensional alginate beads for 3 d, as described previously ([Kawasaki et al, 2008]). C28/I2 and HEK293-TOP cells were maintained in DMEM (Gibco) containing 10% FBS. All chemicals were dissolved in dimethyl sulfoxide (DMSO; Sigma-Aldrich) for the in vitro studies. For E2 (17β-estradiol; Sigma-Aldrich) treatment, the cells were cultured in phenol red–free DMEM/F12 with 5% charcoal-stripped FBS for 24 h followed by serum-free medium for 24 h before the experiment. The PTD-DBMP was synthesized by Peptide 2.0 Inc.\nATDC5 or C28/I2 cells were seeded on glass coverslip in 12-well culture plates. The cells were washed with PBS and fixed with 4% PFA at room temperature for 15 min. After permeabilization with 0.1% Triton X-100 for 15 min and blocking with 5% BSA for 1 h, the cells were incubated with primary antibodies specific for β-catenin (1:100) or CXXC5 (1:200) at 4°C overnight. The cells were washed in PBS and incubated with Alexa Fluor 488 or Alexa Fluor 555 secondary antibodies (1:200) at room temperature for 1 h. Cell nuclei were counterstained with DAPI for 10 min and the stained samples were examined under an LSM700 META microscope using 405-, 488-, or 543-nm excitation wavelengths. For BrdU assay, the cultured cells were incubated with BrdU solution (25 μM) overnight, followed by immunocytochemical staining with antibody against BrdU (1:100).\nImmunoprecipitation was performed as previously described ([Kim et al, 2015]). To monitor the protein–protein interactions, 1 mg of WCLs were incubated with anti-DVL1 and protein G agarose beads (GenDEPOT) or anti-Myc and protein A agarose beads (GenDEPOT) at 4°C for 16 h, and the beads were then washed three times in RIPA buffer. The resulting immune complexes were resolved by SDS–PAGE, and immunoblotting was performed with the indicated antibodies.\nTotal RNA was extracted using Trizol reagent (Invitrogen) according to the manufacturer’s instructions. […]"}, "[1]": {"details": "ATDC5 cells, 0.01 or 0.1 μM, 4 h"}}}
{"smiles": "CON=C1C(=C2C(=O)Nc3cc(Cl)c(Cl)cc32)Nc2ccccc21", "note": "[KY19382, 5,6-dichloroindirubin-3′-methoxime]", "values": [{"measurement": "cytotoxicity in variety of cell types", "setting": "Various cells", "result": "does not induce cytotoxicity"}, {"measurement": "BrdU-positive ATDC5 cells", "setting": "ATDC5 cells; 0.01 or 0.1 μM, 48 h", "result": "enhanced number"}, {"measurement": "CXXC5–DVL interaction (immunoprecipitation)", "setting": "ATDC5 cells; ATDC5 cells transfected with FLAG-DVL1 and CXXC5-Myc, 0.1 μM, 4 h", "result": "interruption"}, {"measurement": "nuclear translocation of β-catenin", "setting": "ATDC5 cells; ATDC5 cells, 0.1 μM, 48 h", "result": "elevated nuclear translocation"}, {"measurement": "mRNA levels of chondrogenic markers", "setting": "ATDC5 cells; ATDC5 cells, 0.1 μM, 3 d, alginate beads", "result": "up-regulated"}, {"measurement": "expression levels of Wnt/β-catenin target genes (Wisp1, Axin2)", "setting": "ATDC5 cells; [1]", "result": "markedly increased"}, {"measurement": "expression of 19 other genes that respond to other pathways (off-target effects)", "setting": "ATDC5 cells; [1]", "result": "not significantly altered"}, {"measurement": "concentration sufficient to promote activation of Wnt/β-catenin pathway in vitro", "setting": "ATDC5 cells; Fig 4E and Fig S8", "result": 0.01, "unit": "µM"}]}
